What was measured:
[1] = test system: AAV2; experiment: AAV2 release after cell lysis (physical titer by ELISA, genome titer by qPCR); type: cell-based; settings: for increase of AAV2 dissociation by addition to 0.5 M NaCl: 1% detergent added to 0.5 M NaCl, FIG. 2; for AAV2 viral titers after cell lysis: 90 min, 37° C., 0.5% Triton X-100, 0.5 M NaCl, or 0.5 M sodium chloride and 1% TDAO, FIG. 1 and 2
Protocol: (§1) An AAV2 suspension upstream process is performed including a cell lysis step using various single reagents, like Triton X-100 (T100) or TDAO at various concentrations or 0.5 M NaCl, all at 37° C. The samples were centrifuged at ~13000 g for 5 min at different time points post lysis, and supernatants were removed and stored at -70° C. for assays. Physical titers were measured by enzyme-linked immunosorbent assay (ELISA) using an AAV2 Titration ELISA kit (Progen) following manufacturer’s protocol, genome titers were measured by quantitative PCR (qPCR) targeting a specific sequence within the transfer vector. All reagents and assay protocols are from MilliporeSigma unless otherwise specified. Among all the conditions tested, 0.5 M NaCl was the only one capable of releasing significant amounts of AAV2 at physical titer of e10 vp/mL and genome titer of e9 gc/mL levels (FIG. 1). Moreover, time-dependent effects from 30 min to 90 min post lysis for all 3 single reagents, and concentration-dependent effects from 0.5% to 1% for both single detergents have been observed (FIG. 1).
The same process is performed as in Example 1 but with NaCl combined with different detergents.
To investigate the optimal concentration of TDAO in combination with 0.5 M NaCl, an AAV2 dissociation test using 0 to 4% of TDAO and including an additional lysis time of 60 min was performed. […] Furthermore, the best lysis time of 90 min was confirmed as before based on genome titers. When calculating % full viral particles (vp) as the ratio of genome titer to physical titer, it was noted that 2% TDAO also facilitated more release of full viral particles over time with ~100% full VP at 90 min post lysis due to unknown mechanisms (FIG. 4).

[2] = cited from earlier work
[3] = test system: AAV9; experiment: AAV9 release after cell lysis (titers as in Example 1); type: cell-based; settings: with NaCl, FIG. 5
Protocol: as §1
An AAV9 suspension upstream process is performed as in Example 1 but using both single reagents and double reagents combined with NaCl.

[4] = test system: HEK293T-derived cells; experiment: Turbidity post lysis and % cell lysis (ViCell XR) in 3L Mobius bioreactor; type: cell-based, human; settings: AAV2, 3L Mobius at 72 hr PT; NaCl at 0.5 M; lysed cells to total cells before lysis
Protocol: Cell lysis performed according to the general procedure of Example 1 was performed with different reagents and compared in terms of turbidity reduction and lysis efficiency.
Each turbidity in Table 2 is an average of 1-3 bioreactors x 2 measurements. PT = post transfection. […] Cell counts were taken by ViCell XR before lysis and at 30 min post lysis, and % cell lysis was calculated as a ratio of lysed cells to total cells before lysis.

Triton X-100 [reference compound]
increase of AAV2 dissociation by addition to 0.5 M NaCl [1]: not
AAV2 viral titers after cell lysis [1]: significantly reduced viral titers

CCCCCCCC[N+](C)(C)[O-] [N,N-Dimethyloctyl amine N-oxide]
biodegradation in 28 days [2]: 100%

CCCCCCCCCC[N+](C)(C)[O-] [N,N-Dimethyldecyl amine N-oxide]
biodegradation in 28 days [2]: 97%

CCCCCCCCCCCC[N+](C)(C)[O-] [LDAO, N,N-Dimethyldode cylamine N-oxide]
biodegradation in 28 days [2]: 95%

CCCCCCCCCCCCCCCC[N+](C)(C)[O-] [N,N-Dimethylhexa decylamine N-oxide]
biodegradation in 28 days [2]: <88%

CCCCCCCCCCCCCC[N+](C)(C)[O-] [TDAO, N,N-Dimethyltertra decylamine N-oxide]
increase of AAV2 dissociation by addition of TDAO to 0.5 M NaCl ([1]; 0 to 4% of TDAO, genome titers, FIG. 3): 3-5 fold
increase of AAV2 dissociation by addition to 0.5 M NaCl [1]: 3-9 fold
% full viral particles (ratio of genome titer to physical titer) ([1]; 2% TDAO with 0.5 M NaCl, 90 min post lysis, FIG. 4): ~ 100%
AAV9 dissociation, double reagents with 2% TDAO compared to 1% TDAO [3]: no benefits
biodegradation in 28 days [2]: 88%

[Cl-].[Na+] [NaCl, sodium chloride, reference compound]
AAV2 viral titers after cell lysis [1]: significantly reduced viral titers
% cell lysis after 30 min [4]: 80%

From patent US20230183656A1, “METHODS AND COMPOSITIONS FOR PURIFYING ADENO ASSOCIATED VIRUS PARTICLES OR ADENOVIRUSES” (Merck Patent GmbH, priority 2020, published 2023)
